The record followed here is patent publication US20240327425A1, “KRAS G12D INHIBITOR AND USE THEREOF” (SHANGHAI DE NOVO PHARMATECH CO., LTD., priority 2021, published 2024).

Counter-ions that a name gives are not always drawn.

In general, IC50 refers to the concentration that inhibits the measured activity by half.

This experiment concerns the target Human KRAS G12D His-tagged protein (Homo sapiens (Human), UniProt P01116, G12D). As to the kind of experiment: KRAS G12D binding assay (TR-FRET). Conditions: GDP 20 nM, GTP-Red. On the procedure: The binding ability of the compound to KRAS G12D protein was detected by TR-FRET method, and the inhibitory activity of the compound on KRAS G12D protein was evaluated. Human KRAS G12D His-tagged (Cisbio, 63ADK000CB27PEG) protein was 100-fold diluted with PPI Eu detection buffer (Cisbio, 61DB9RBF), then 5 μL of which was added to a 384-well plate and centrifuged at 2000 rpm for 40 seconds. A 10 mM concentrated stock solution of the test compound was prepared with dimethyl sulfoxide, 3-fold serially diluted, then diluted to make a working solution (0.5% DMSO) with PPI Eu detection buffer, added to a 384-well plate at 5 μL/well, with the control group added with 0.5% dimethyl sulfoxide and the highest concentration of the test compound at 10 μM, and centrifuged at 2000 rpm for 40 seconds. An 80 nM GDP standard working solution (Cisbio, 63ADK000CB27PEG) was prepared with PPI Eu detection buffer and added to a 384-well plate at 5 μL/well, with the final concentration of GDP standard working solution at 20 nM. The plate was centrifuged at 2000 rpm for 40 seconds and reacted at room temperature for 30 minutes. 1×6His Eu cryptate antibody and GTP-Red reagent (Cisbio, 63ADK000CB27PEG) were prepared with PPI Eu detection buffer, mixed in a volume ratio of 1:1, 5 μL of which was then added to a 384-well plate, centrifuged at 2000 rpm for 40 seconds, and incubated at room temperature for 30 minutes. The fluorescence intensity at 620 nm and 665 nm was detected by a microplate reader, and the inhibitory activity of the compound on KRAS G12D protein was obtained by fitting a four-parameter equation.
(In TR-FRET formats the signal depends on donor and acceptor labels being close together.)
`Nc1cc2c(-c3c(Cl)c4c5c(nc(OC[C@@]67CCCN6C[C@H](F)C7)nc5c3F)N3C[C@H]5CC[C@H](N5)[C@H]3CO4)c(Cl)ccc2s1` [Compound I-15, 5-chloro-4-((5aS,6S,9R)-3-chloro-1-fluoro-13-(((2R,7aS)-2-fluorohexahydro-1H-pyrrolizin-7a-yl)methoxy)-5a,6,7,8,9,10-hexahydro-5H-6,9-epiminoazepino[2′,1′:3,4][1,4]oxazepino[5,6,7-de]quinazolin-2-yl)benzo[b]thiophen-2-amine ditrifluoroacetate] had an IC50 of 38.1 nM.

For the molecule `C#Cc1cccc2cc(O)cc(-c3nc4c5c(nc(OC[C@@]67CCCN6C[C@H](F)C7)nc5c3F)N3C[C@@H]5CC[C@@H](N5)[C@@H]3CO4)c12` [Compound I-5, 5-ethynyl-4-((5aR,6R,9S)-1-fluoro-12-(((2R,7aS)-2-fluorohexahydro-1H-pyrrolizin-7a(5H)-yl)methoxy)-5a,6,7,8,9,10-hexahydro-5H-4-oxa-3,10a,11,13,14-pentaaza-6,9-methanonaphtho[1,8-ab]heptan-2-yl)naphthalen-2-ol ditrifluoroacetate], the IC50 is 25.4 nM.

The molecule `[2H]C1([2H])CC[C@@]2(C([2H])([2H])Oc3nc4c5c(c(Cl)c(-c6cccc7sc(N)c(C#N)c67)c(F)c5n3)OC[C@@H]3[C@@H]5CC[C@H](CN43)N5)C[C@@H](F)CN12` (single isomer, unassigned) [Compound I-27-1] yielded an IC50 of 212 nM.

As to `CN1CCC[C@@H]1COc1nc2c3c(c(Cl)c(-c4cccc5sc(N)c(C#N)c45)c(F)c3n1)OC[C@@H]1[C@@H]3CC[C@H](CN21)N3` [Compound I-29], the IC50 is 10.8 nM.

In turn, `N#Cc1c(N)sc2c(F)ccc(-c3c(Cl)c4c5c(nc(OC[C@@]67CCCN6C[C@H](F)C7)nc5c3F)N3C[C@H]5CC[C@H](N5)[C@H]3CO4)c12` (single isomer, unassigned) [Compound I-11-2] came in with a concentration for half-maximal inhibition (IC50) of 5.9 nM.

For `N#Cc1c(N)sc2cccc(-c3c(Cl)c4c5c(nc(OC[C@@]67CCCN6C[C@H](F)C7)nc5c3F)N3C[C@H]5CC[C@H](N5)[C@H]3CO4)c12` (single isomer, unassigned) [Compound I-7-1], the IC50 is 186 nM.

“4-((5aS,6S,9R)-3-chloro-1-fluoro-13-(((2R,7aS)-2-fluorohexahydro-1H-pyrrolizin-7a-yl)methoxy)-5a,6,7,8,9,10-hexahydro-5H-6,9-epiminoazepino[2′,1′:3,4][1,4]oxazepino[5,6,7-de]quinazolin-2-yl)-1-(difluoromethyl)-1H-benzo[d]imidazol-2-amine ditrifluoroacetate [Compound I-23]” gave an IC50 of 217 nM.

Regarding `CC(Oc1nc2c3c(c(Cl)c(-c4c(F)ccc5sc(N)c(C#N)c45)c(F)c3n1)OC[C@@H]1[C@@H]3CC[C@H](CN21)N3)[C@@]12CCCN1C[C@H](F)C2` (stereo partly drawn) [Compound I-18, 2-amino-4-((5aS,6S,9R)-3-chloro-1-fluoro-13-(1-((2R,7aS)-2-fluorohexahydro-1H-pyrrolizin-7a-yl)ethoxy)-5a,6,7,8,9,10-hexahydro-5H-6,9-epiminoazepino[2′,1′:3,4][1,4]oxazepino[5,6,7-de]quinazolin-2-yl)-5-fluorobenzo[b]thiophene-3-carbonitrile ditrifluoroacetate], the IC50 was determined as 22 nM.

In turn, `C#Cc1cccc2cc(O)cc(-c3nc4c5c(nc(OC[C@@]67CCCN6C[C@H](F)C7)nc5c3F)N3C[C@H]5CC[C@H](N5)[C@H]3CO4)c12` [Compound I-4, 5-ethynyl-4-((5aS,6S,9R)-1-fluoro-12-(((2R,7aS)-2-fluorohexahydro-1H-pyrrolizin-7a(5H)-yl)methoxy)-5a,6,7,8,9,10-hexahydro-5H-4-oxa-3,10a,11,13,14-pentaaza-6,9-methanonaphtho[1,8-ab]heptan-2-yl)naphthalen-2-ol ditrifluoroacetate] had an IC50 of 2.72 nM.

In turn, `Nc1nc2c(-c3c(Cl)c4c5c(nc(OC[C@@]67CCCN6C[C@H](F)C7)nc5c3F)N3C[C@H]5CC[C@H](N5)[C@H]3CO4)cccc2s1` (single isomer, unassigned) [Compound I-12-1] displayed an IC50 of 30.3 nM.

On to `N#Cc1c(N)sc2c(F)ccc(-c3c(Cl)c4c5c(ncnc5c3F)N3C[C@H]5CC[C@H](N5)[C@H]3CO4)c12` (single isomer, unassigned) [Compound I-8-2], for which the IC50 turned out to be 60.4 nM.

Molecule `Nc1n[nH]c2sc3cccc(-c4c(Cl)c5c6c(nc(OC[C@@]78CCCN7C[C@H](F)C8)nc6c4F)N4C[C@H]6CC[C@H](N6)[C@H]4CO5)c3c12` (single isomer, unassigned) [Compound I-26-2] returned an IC50 of 11 nM.

For the molecule `N#Cc1c(N)nn2cccc(-c3c(Cl)c4c5c(nc(OC[C@@]67CCCN6C[C@H](F)C7)nc5c3F)N3C[C@H]5CC[C@H](N5)[C@H]3CO4)c12` [Compound I-13, 2-amino-4-((5aS,6S,9R)-3-chloro-1-fluoro-13-(((2R,7aS)-2-fluorohexahydro-1H-pyrrolizin-7a-yl)methoxy)-5a,6,7,8,9,10-hexahydro-5H-6,9-epiminoazepino[2′,1′:3,4][1,4]oxazepino[5,6,7-de]quinazolin-2-yl)pyrazolo[1,5-a]pyridine-3-carbonitrile], the IC50 was 32.5 nM.

`Nc1cc2cc(-c3c(Cl)c4c5c(nc(OC[C@@]67CCCN6C[C@H](F)C7)nc5c3F)N3C[C@H]5CC[C@H](N5)[C@H]3CO4)ccc2s1` [Compound I-16, 5-((5aS,6S,9R)-3-chloro-1-fluoro-13-(((2R,7aS)-2-fluorohexahydro-1H-pyrrolizin-7a-yl)methoxy)-5a,6,7,8,9,10-hexahydro-5H-6,9-epiminoazepino[2′,1′:3,4][1,4]oxazepino[5,6,7-de]quinazolin-2-yl)benzo[b]thiophen-2-amine ditrifluoroacetate] returned an IC50 of 24 nM.

In turn, `N#Cc1c(N)sc2cccc(-c3c(Cl)c4c5c(ncnc5c3F)N3C[C@H]5CC[C@H](N5)[C@H]3CO4)c12` (single isomer, unassigned) [Compound I-10-2] came in with an IC50 of 75.8 nM.

As for `N#Cc1c(N)sc2cccc(-c3c(Cl)c4c5c(ncnc5c3F)N3CC5CCC(N5)C3CO4)c12` (stereo not drawn) [Compound I-6-2, 2-amino-4-(3-chloro-1-fluoro-5a,6,7,8,9,10-hexahydro-5H-6,9-epiminoazepino[2′,1′:3,4][1,4]oxazepino[5,6,7-de]quinazolin-2-yl)benzo[b]thiophene-3-carbonitrile (trans) trifluoroacetate], the IC50 was 53.5 nM.

As to `C#Cc1cccc2cc(O)cc(-c3nc4c5c(nc(OC[C@@]67CCCN6C[C@H](F)C7)nc5c3F)N3CC5CCC(N5)C3CO4)c12` (stereo partly drawn) [Compound I-1-1, 5-ethynyl-4-(1-fluoro-12-(((2R,7aS)-2-fluorohexahydro-1H-pyrrolizin-7a-yl)methoxy)-5a,6,7,8,9,10-hexahydro-5H-4-oxa-3,10a,11,13,14-pentaaza-6,9-methanonaphtho[1,8-ab]heptan-2-yl)naphthalen-2-ol], the IC50 turned out to be 11 nM.

`[2H]C([2H])(Oc1nc2c3c(c(Cl)c(-c4cccc5sc(N)c(C#N)c45)c(F)c3n1)OC[C@@H]1[C@@H]3CC[C@H](CN21)N3)[C@@]12CCCN1C[C@H](F)C2` (single isomer, unassigned) [Compound I-24-1] registered an IC50 of 136 nM.

Turning to `Nc1nc2c(-c3c(Cl)c4c5c(nc(OC[C@@]67CCCN6C[C@H](F)C7)nc5c3F)N3C[C@H]5CC[C@H](N5)[C@H]3CO4)ccc(F)c2s1` (single isomer, unassigned) [Compound I-19-2], the IC50 is 4.63 nM.

As for `CC(Oc1nc2c3c(c(Cl)c(-c4cccc5sc(N)c(C#N)c45)c(F)c3n1)OC[C@H]1[C@@H]3CC[C@H](CN21)N3)[C@@]12CCCN1C[C@@H](F)C2` (stereo partly drawn) [Compound I-17-2, 2-amino-4-((5aS,6S,9R)-3-chloro-1-fluoro-13-(1-((2R,7aS)-2-fluorohexahydro-1H-pyrrolizin-7a-yl)ethoxy)-5a,6,7,8,9,10-hexahydro-5H-6,9-epiminoazepino[2′,1′:3,4][1,4]oxazepino[5,6,7-de]quinazolin-2-yl)benzo[b]thiophene-3-carbonitrile], the IC50 was determined as 6.9 nM.

Molecule `CC(Oc1nc2c3c(c(Cl)c(-c4cccc5sc(N)c(C#N)c45)c(F)c3n1)OCC1C3CCC(CN21)N3)C12CCCN1CC(F)C2` [Compound I-17-1, 2-amino-4-((5aS,6S,9R)-3-chloro-1-fluoro-13-(1-((2R,7aS)-2-fluorohexahydro-1H-pyrrolizin-7a-yl)ethoxy)-5a,6,7,8,9,10-hexahydro-5H-6,9-epiminoazepino[2′,1′:3,4][1,4]oxazepino[5,6,7-de]quinazolin-2-yl)benzo[b]thiophene-3-carbonitrile] came in with an IC50 of 646 nM.
